According to US6403788B1, “Non-genotoxic metalloporphyrins as synthetic catalytic scavengers of reactive oxygen species” (Eukarion, Inc., priority 2000, dated 2002):

How the values were obtained:
[1] = Catalase activity, hydrogen peroxide consumed at 20 minutes; format: biochemical; settings: over 20 minutes; 10 μM compound, 100 μM hydrogen peroxide, 40 mM sodium phosphate pH 7.4
Protocol: (§1) Catalase activity was measured by incubating the sample compound with hydrogen peroxide and determining the amount of hydrogen peroxide remaining after a period of time using a colorimetric peroxidase-coupled assay method. 10 μM sample compound and 100 μM hydrogen peroxide in 40 mM sodium phosphate pH 7.4 were incubated together at ambient temperature in a multi-well plate. After the desired reaction period had elapsed, 20 μl of peroxidase/ABTS reagent was added (peroxidase/ABTS reagent contained 100 μl of 50 mM Na phosphate, pH 7.4, 1 mg horseradish peroxidase (1310 U/mg) and […]). After five minutes, absorbance at 750 nm was determined. The amount of hydrogen peroxide remaining was calculated based on a standard curve. To compare rates of catalase reaction, the amount of hydrogen peroxide consumed at 20 minutes was determined (See table III). It was also of interest to determine the total number of turnovers completed by the compound before inactivation by hydrogen peroxide. This was assayed under similar conditions, except that 15.8 μM compound was combined with 1582 μM hydrogen peroxide in 5 mM Na phosphate, pH 7.4. Reactions were allowed to proceed to completion and then the amount of hydrogen peroxide remaining was determined as described above. Results showing […] in the turnover assay (nmoles hydrogen peroxide per nmole compound) are also shown in Table III.

[2] = Catalase turnover assay, total hydrogen peroxide consumed before inactivation; format: biochemical; settings: to completion, 15.8 μM compound, 1582 μM hydrogen peroxide, 5 mM Na phosphate pH 7.4
Protocol: as §1

[3] = Superoxide dismutase activity, xanthine-xanthine oxidase / cytochrome C; format: biochemical; settings: reciprocal of IC50; xanthine 60 μM, xanthine oxidase 0.009 units/ml, cytochrome C 27.8 μM
Protocol: Superoxide Dismutase Activity was measured by incubating the compound with a superoxide generating system (Xanthine, 60 μM-Xanthine Oxidase, 0.009 units/ml) and a detector molecule (Cytochrome C, 27.8 μM). Upon reacting with a molecule of superoxide, Cytochrome C undergoes a spectrum-shift which can be detected as an increase in absorbance at 550 nm. In this assay procedure, the reactant concentrations were adjusted to give a reaction rate close to 0.1 AU/min. at 2-3 min. after the reaction began. Addition of compounds with Superoxide Dismutase activity reduce the rate of absorbance change. Compounds were assayed at several concentrations (typically at 0, 2, 4, and 8 μM) and the resulting rates were graphed and fitted to a linear regression formula. The linear regression formula was then solved to determine the concentration of compound required to reduce the reaction rate to 50% of the rate without compound present (IC50).

[4] = Peroxidase activity, ABTS oxidation; format: biochemical; settings: 10 μM compound, 200 μM hydrogen peroxide, 500 μM ABTS, pH 8.1, 740 nm
Protocol: Peroxidase activity was measured by incubating 10 μM compound, 200 μM hydrogen peroxide and 500 μM ABTS in 50 mM sodium phosphate, pH 8.1. The rate of ABTS oxidation was monitored at 740 nm and initial rates (change in absorbance per min.) determined.

[5] = system: ΦX 174 DNA Plasmid (Form I); experiment: Cleavage of ΦX 174 DNA plasmid (form I), activation with H2O2; format: biochemical, phage ΦX 174; settings: DNA 3.5 nM, compound 1 μM, H2O2 1 mM
Excerpt: (§2) The DNA cleavage activity was quantified in terms of number of single-strand breaks per DNA molecule according to the equation […], Io=% form I (supercoiled DNA) in the DNA control, and I=% form I in the experiment (see Bernadou et al, Biochemistry, 28: 7268-7275, (1989)). This assay is very sensitive and is able to detect very low levels of DNA activity. S values less than S=1.0 are indicative of very low DNA cleavage activity when the compounds are at a concentration of equal to or less than 1000 nM and KHSO5 is present at a concentration of equal to or less than 100 μM.
(§3) ΦX 174 DNA digestion conditions for standard experiments were as follows: commercially available DNA was diluted to 50 μg/mL in phosphate buffer (10 mM, pH 7.5). The reaction involved 5 μL of ΦX 174 DNA (50 μg/mL, 74.8 μM in base pairs), 5 μL of 40 mM phosphate buffer, pH 7.5 with 400 mM NaCl, 5 μL of metalloporphyrin in double-distilled water or 5 μL of iron-bleomycin complex in double-distilled water, and 5 μL of KHSO5 or 5 μL of H2O2 or 5 μL of ascorbate in double-distilled water. Preincubation of DNA and metalloporphyrins or iron-bleomycin complex was performed for about 15 min. The digestion time in the presence of KHSO5 was 10 min, of H2O2 was 30 min and of ascorbate was 30 min at 20° C. DNA cleavage was monitored by agarose gel electrophoresis. Reactions with KHSO5 were first quenched by 2 μL of 100 mM Hepes buffer, pH 8. In all cases, reactions were quenched by 5 μL of a stopping reagent. The stopping reagent consisted of 250 mM Hepes buffer, pH 7.4, containing 75% glycerol and 0.05% bromophenol blue. Reaction mixtures were then run in 0.8% agarose slab horizontal gel containing ethidium bromide […], at constant current (25 mA for 15h), in 89 mM Tris-borate buffer and 2.5 mM EDTA pH 8.3. Bands were located by WV light (254 nm), photographed, and quantitated by microdensitometry. The correction coefficient 1.47±0.30 was used for decreased stainability of form I DNA vs form II DNA and form III DNA.

[6] = system: ΦX 174 DNA Plasmid (Form I); experiment: Cleavage of ΦX 174 DNA plasmid (form I), compound alone or activated with KHSO5; format: biochemical, phage ΦX 174
Excerpt: as §2, §3

[7] = system: ΦX 174 DNA Plasmid (Form I); experiment: Cleavage of ΦX 174 DNA plasmid (form I), activation with ascorbate in the presence of air; format: biochemical, phage ΦX 174; settings: for S (single-strand breaks per DNA molecule) / form % I / form % II / form % III: DNA 3.5 nM
Excerpt: as §2, §3

[8] = DNA 3.5 nM, compound 1 μM, KHSO5 100 μM
[9] = compound 10 nM, without ascorbate (Table II)

Compound: O=C(O)c1ccc(-c2c3nc(c(-c4ccc(C(=O)O)cc4)c4ccc([n-]4)c(-c4ccc(C(=O)O)cc4)c4nc(c(-c5ccc(C(=O)O)cc5)c5ccc2[n-]5)C=C4)C=C3)cc1.[Mn+3] [MnTBAP, Mn(III) tetrakis (4-benzoic acid) porphyrin, reference compound]
- CATALASE* Rate at 20 mins. [1]: 0.4 nmole H2O2/nmole Structural Formula compound
- CATALASE** H2O2 Consumption [2]: 38.5 nmole H2O2/nmole Structural Formula compound
- Cyt C SOD 1/(IC50, μM) [3]: 0.015 µM⁻¹
- PEROXIDASE Initial Rate [4]: 0.0304 change in absorbance per min.

Compound: CC[NH+](CC)CCNS(=O)(=O)c1ccc(C2=C3C=CC4=[N+]3[Mn-]35[n]6c2ccc6C(c2ccc(S(=O)(=O)NCC[NH+](CC)CC)cc2)=C2C=CC(=[N+]23)C(c2ccc(S(=O)(=O)NCC[NH+](CC)CC)cc2)=c2ccc([n]25)=C4c2ccc(S(=O)(=O)NCC[NH+](CC)CC)cc2)cc1.[Cl-].[Cl-].[Cl-].[Cl-].[Cl-] [Structural Formula II, meso-tetrakis[4-(N-(2-(N,N-diethylammonio)ethyl)aminosulfonyl)phenyl]porphyrinato diaqua-manganese (III) pentachloride]
- CATALASE* Rate at 20 mins. [1]: 1.6 nmole H2O2/nmole Structural Formula compound
- CATALASE** H2O2 Consumption [2]: 42.4 nmole H2O2/nmole Structural Formula compound
- Cyt C SOD 1/(IC50, μM) [3]: 0.034 µM⁻¹
- PEROXIDASE Initial Rate [4]: 0.0151 change in absorbance per min.

Compound: CC[NH+](CC)CCNS(=O)(=O)c1ccc(-c2c3nc(c(-c4ccc(S(=O)(=O)NCC[NH+](CC)CC)cc4)c4ccc([n-]4)c(-c4ccc(S(=O)(=O)NCC[NH+](CC)CC)cc4)c4nc(c(-c5ccc(S(=O)(=O)NCC[NH+](CC)CC)cc5)c5ccc2[n-]5)C=C4)C=C3)cc1.O.O.[Cl-].[Cl-].[Cl-].[Cl-].[Cl-].[Fe+3] [Structural Formula III, meso-tetrakis[4-(N-(2-(N,N-diethylammonio)ethyl)aminosulfonyl)phenyl]porphyrinato diaqua-iron (III) pentachloride]
- CATALASE* Rate at 20 mins. [1]: 0.3 nmole H2O2/nmole Structural Formula compound
- CATALASE** H2O2 Consumption [2]: 4.7 nmole H2O2/nmole Structural Formula compound
- Cyt C SOD 1/(IC50, μM) [3]: 0.045 µM⁻¹
- PEROXIDASE Initial Rate [4]: 0.0363 change in absorbance per min.

Compound: CC(=O)[O-].CC(=O)[O-].CC(=O)[O-].CC(=O)[O-].CC(=O)[O-].CC[N+](C)(CC)CCNS(=O)(=O)c1ccc(-c2c3nc(c(-c4ccc(S(=O)(=O)NCC[N+](C)(CC)CC)cc4)c4ccc([n-]4)c(-c4ccc(S(=O)(=O)NCC[N+](C)(CC)CC)cc4)c4nc(c(-c5ccc(S(=O)(=O)NCC[N+](C)(CC)CC)cc5)c5ccc2[n-]5)C=C4)C=C3)cc1.O.O.[Mn+3] [Structural Formula VI, meso-tetrakis[4-(N-(2-(N,N,N-diethylmethylammonio)ethyl)aminosulfonyl)phenyl]porphyrinato diaqua-manganese (III) pentaacetate]
- CATALASE* Rate at 20 mins. [1]: 2.4 nmole H2O2/nmole Structural Formula compound
- CATALASE** H2O2 Consumption [2]: 42 nmole H2O2/nmole Structural Formula compound
- Cyt C SOD 1/(IC50, μM) [3]: 0.041 µM⁻¹
- PEROXIDASE Initial Rate [4]: 0.0011 change in absorbance per min.

Compound: CC(=O)[O-].CC(=O)[O-].CC(=O)[O-].CC(=O)[O-].CC(=O)[O-].CC[N+](C)(CC)CCNS(=O)(=O)c1c(C)cc(C)c(-c2c3nc(c(-c4c(C)cc(C)c(S(=O)(=O)NCC[N+](C)(CC)CC)c4C)c4ccc([n-]4)c(-c4c(C)cc(C)c(S(=O)(=O)NCC[N+](C)(CC)CC)c4C)c4nc(c(-c5c(C)cc(C)c(S(=O)(=O)NCC[N+](C)(CC)CC)c5C)c5ccc2[n-]5)C=C4)C=C3)c1C.O.O.[Mn+3] [Structural Formula VII, meso-tetrakis[3-(N-(2-(N,N,N-diethylmethylammonio)ethyl)aminosulfonyl)-2,4,6-trimethylphenyl]porphyrinato diaqua-manganese (III) pentaacetate]
- CATALASE* Rate at 20 mins. [1]: 1.3 nmole H2O2/nmole Structural Formula compound
- CATALASE** H2O2 Consumption [2]: 166.6 nmole H2O2/nmole Structural Formula compound
- Cyt C SOD 1/(IC50, μM) [3]: 0.013 µM⁻¹
- PEROXIDASE Initial Rate [4]: 0.0025 change in absorbance per min.

Compound: CC(=O)[O-].CC(=O)[O-].CC(=O)[O-].CC(=O)[O-].CC(=O)[O-].CC[N+](C)(CC)CCNS(=O)(=O)c1c(C)cc(C)c(C2=C3C=CC4=[N+]3[Fe-]35[n]6c2ccc6C(c2c(C)cc(C)c(S(=O)(=O)NCC[N+](C)(CC)CC)c2C)=C2C=CC(=[N+]23)C(c2c(C)cc(C)c(S(=O)(=O)NCC[N+](C)(CC)CC)c2C)=c2ccc([n]25)=C4c2c(C)cc(C)c(S(=O)(=O)NCC[N+](C)(CC)CC)c2C)c1C [Structural Formula VIII, meso-tetrakis[3-(N-(2-(N,N,N-diethylmethylammonio)ethyl)aminosulfonyl)-2,4,6-trimethylphenyl]porphyrinato diaqua-iron(III) pentaacetate]
- S (single-strand breaks per DNA molecule) [5]: 0.13 SSBs
- form % I [5]: 86%
- form % II [5]: 14%
- form % III [5]: 0%
- S (single-strand breaks per DNA molecule) [6, 8]: 0.03 SSBs
- form % I [6, 8]: 90%
- form % II [6, 8]: 10%
- form % III [6, 8]: 0%
- DNA cleavage activity in oxidative medium ([6]; oxidative medium (KHSO5)): do not exhibit any significant DNA cleavage activity
- S (single-strand breaks per DNA molecule) ([7]; compound 1 μM, Asc. 1 mM): 1.61 SSBs
- form % I ([7]; compound 1 μM, Asc. 1 mM): 43%
- form % II ([7]; compound 1 μM, Asc. 1 mM): 57%
- form % III ([7]; compound 1 μM, Asc. 1 mM): 0%

Compound: Bleomycin [reference compound]
- DNA cleavage ([7]; 1 μM concentration, ascorbate): all DNA is cleaved in small fragments
- S (single-strand breaks per DNA molecule) ([7]; compound 10 nM, Asc. 1 mM): 7.79 SSBs
- form % I ([7]; compound 10 nM, Asc. 1 mM): 7%
- form % II ([7]; compound 10 nM, Asc. 1 mM): 71%
- form % III ([7]; compound 10 nM, Asc. 1 mM): 22%
- S (single-strand breaks per DNA molecule) [7, 9]: 0.01 SSBs
- form % I [7, 9]: 94%
- form % II [7, 9]: 6%
- form % III [7, 9]: 0%
- times more active in DNA cleavage than Structural Formula V ([7]; same concentration (10 nM), ascorbate 1 mM, from experiments 2, 3, 7 and 8): 768 times
